In publication PMC8839081 (Molecules, 2022):
“And” between values parts separate entries of the source, which are not always exact repeats. Identical values can stand only once. Like-named read-outs stand apart in the source and are kept apart here.

Experiments:
[1] = tested on: C6 glioma cells; assay: GDNF release by C6 cells (sandwich ELISA of culture medium); assay type: cell-based, Rat; conditions: 48 h; for EC50: Rattus norvegicus, C6 glioma, read-out: EC50 of GDNF release; for maximum GDNF release relative to vehicle: dose-response assay, maximum at 10 µM; for GDNF in the medium relative to negative control (GDNF/DMSO): initial screening, confluent C6 cells, 10 μM
Protocol: (§1) Cell culture: Rat C6 glioma cells were purchased from the American Type Culture Collection (CC-107) and maintained in Dulbecco’s Modified Eagle Medium (Life Technologies, Carlsbad, CA, USA; 10569) with 5% (v/v) fetal bovine serum (FBS, Atlanta Biologicals) and 100 U mL−1 of penicillin and streptomycin (Life Technologies). Cells were incubated at 37 °C with 5% CO2 humidified atmosphere. As a glioma cell line, C6 cells are highly susceptible to phenotypic drift, which can lead to varying expression levels of receptors and growth factors of interest. For such reason, all data presented here show a single representative experiment of many independent replicate trials.
GDNF release experiments: Into a 96-well plate were added C6 cells at a density of 25,300 cells/well in full growth medium (see above). Cells were allowed to adhere for 24 h at 37 °C. Cells were then serum-starved with media containing 0.5% FBS (low serum) for an additional 24 h. Low-serum media was refreshed prior to starting the experiment. Compounds were added in 50 μL of low-serum media to obtain a final volume of 200 μL/well. Treatments were performed in quadruplicate. […] Experiments were terminated by removing the conditioned media from each well and storing them at −80 °C until analyzed. GDNF was detected using a standard sandwich-style ELISA kit purchased from Promega Corporation (Madison, WI, USA) following the manufacturer’s instructions. Briefly, monoclonal anti-GDNF antibodies were captured onto a 96-well Nunc Immulon Immunoassay plate at a dilution of 1:1000 in carbonate coating buffer (25 mM sodium bicarbonate, 25 mM sodium carbonate, pH 8.2) overnight at 4 °C. After removing the monoclonal antibody, wells were blocked with 1× block and sample buffer for 1 h at RT (200 μL/well). A GDNF standard curve was created by serially diluting the recombinant human GDNF standard in 1× block and sample buffer to a concentration range of 0−1000 pg mL^−1. To each sample well was added 100 μL of conditioned media from above and the standard curve (in duplicate), and plates were incubated for 6 h with shaking at RT. After washing five times with TBST (150 mM sodium chloride, 10 mM Tris·HCl, 10 mM Tris base, 0.05% Tween 20, pH 7.6), wells were incubated with antihuman polyclonal GDNF antibodies (1:500) in 1× block and sample buffer overnight at 4 °C. Following an additional five washes with TBST, wells were incubated with antichicken IgY-HRP conjugate antibody (1:250) for 2 h with light shaking. After a final five washes, TMB One (100 μL/well) was added to each well and allowed to develop in the absence of light until there were clear differences in color between the highest and lowest concentrations of the standard curve. Wells were then quenched with 1 M HCl (100 μL/well), and the plates were read at an absorbance wavelength of 450 nm using a BioTek Synergy H1 plate reader.

[2] = tested on: C6 glioma cells; assay: WST-1 cell viability assay on C6 cells; assay type: cell-based, Rat; conditions: for IC50: Rattus norvegicus, 48 h exposure, read-out: IC50 of cell proliferation / cell viability (WST-1)
Protocol: as §1
WST-1 Cell Viability Assay: After compound treatment, conditioned media were removed and replaced with 75 μL of warm low-serum media. To each well was added 5 μL of WST-1 Cell Proliferation Reagent (Roche Applied Science, Penzberg, Germany), and the cells were incubated at 37 °C for no more than 1 h. Plates were briefly shaken prior to reading the absorbance at 450 nm. Treatments were compared to vehicle control.

[3] = tested on: bloodstream Trypanosoma brucei brucei; assay: Bioluminescent viability assay on bloodstream T. b. brucei (LUC cell line); assay type: cell-based; conditions: 24 h; for viability at 10 µM: read-out: Viability at 10 µM (%), bloodstream T. b. brucei, 10 µM, 24 h
Protocol: The anti-trypanosomal activity of compounds was evaluated against the bioluminescent cell line of the bloodstream stage of Trypanosoma brucei brucei (called LUC cell line) as previously described. Briefly, to a 96-well culture plate containing 2.2 μL/well DMSO (negative control) or compounds dissolved in DMSO (1% final concentration), 220 μL/well of a suspension of 1 × 10^5 parasites/mL was added. The plates were incubated at 37 °C and 5% CO2 for 24 h. Next, each well was transferred to a 96-well black plate and 20 μL of a solution containing D-Luciferin (1.5 mg/mL in PBS glucose 1% w/v) and Triton X-100 (0.05% vol/vol) was added. Bioluminescence signal was measured in a LUMIstar OPTIMA Microplate luminometer using the following settings: 10 s shaking, 5 s/well acquisition, 0.2 s measurement delay, maximum gain, and 37 °C. For the bioluminescence assay, parasite viability was calculated according to the following formula: Viability (%) = (BLcpd—BLblank)/ (Blneg—BLblank) × 100, where BL refers to the mean of bioluminescence signal corresponding to the tested compound (cpd), the blank (blank, complete media containing 1% v/v DMSO), or the negative control (neg, parasites treated with 1% v/v DMSO). EC50 values were determined from concentration-response curves fitted to a four-parameter sigmoid equation using the GraphPad Prism software (version 6.0). All errors are expressed as one SD.

[4] = tested on: bloodstream Trypanosoma brucei brucei; conditions: read-out: EC50 (µM) against bloodstream T. b. brucei, same cell line and assay conditions, ref Benítez et al. 2020, cited from earlier work
[5] = tested on: C6 glioma cells; assay: LDH cytotoxicity (cell lysis) assay on C6 cells; assay type: cell-based; conditions: 48 h, dose-response 0.03 to 60 µM
Protocol: as §1
LDH Cytotoxicity Assay: The lactate dehydrogenase cytotoxicity assay (Promega) was performed following the manufacturer’s instructions. Briefly, following compound treatment, conditioned media were removed, and untreated wells were washed twice with phosphate buffered saline. To untreated wells was added 40 μL of low-serum media supplemented with lysis buffer provided in the kit (1:10), protease inhibitor cocktail (1:100), and phosphatase inhibitor cocktail 2 (1:100). Cells were lysed at 37 °C for 1 h. […] The wells were quenched with 50 μL of stop solution, and the plates were read at an absorbance wavelength of 490 nm.

[6] = mean SD (n = 3), read-out: EC50 (µM) against bloodstream T. b. brucei
[7] = Trypanosoma brucei, mean SD (n = 3), read-out: EC50 (µM) against bloodstream T. b. brucei
[8] = Trypanosoma brucei, read-out: EC50 (µM) against bloodstream T. b. brucei, 24 h, mean SD (n = 3)
[9] = read-out: EC50 (µM) against bloodstream T. b. brucei, mean SD (n = 3)

Compound | maximum GDNF release relative to vehicle [1] [times] | GDNF in the medium relative to negative control (GDNF/DMSO) [1] | EC50 [3, 6] [µM] | EC50 [3, 7] [µM] | viability at 10 µM ([3]; Trypanosoma brucei) [%] | EC50 [3, 9] | further results
CC(C)C(C)(C)[Si](C)(C)OCC1C2C=CC(C)(C3OC(C)(C)OC23)N1CCc1c[nH]c2ccccc12 [Compound 11, (1S, 3R, 4S, 5S, 6R)-N-(2-(3-indolyl)ethyl)-1-methyl-3-(dimethyl(1,1,2-trimethylpropyl)silyloxy)methyl-5,6-isopropylidendioxy-2-azabicycle[2.2.2]-7-octene] | 9 | ≤ 15 times | 7.95 ± 0.34 | 7.9 | 37 ± 6 | – | EC50 ([1]; dose-response 0.03 to 60 µM): 3.46 µM; IC50 [2]: 17.7 µM
COC(=O)C1C2C=CC(C)(C3OC(C)(C)OC23)N1CCc1c[nH]c2ccccc12 [Compound 7, (1S, 3S, 4S, 5S, 6R)-Methyl N-(2-(3-indolyl)ethyl)-1-methyl-5,6-isopropylidendioxy-2-azabicycle[2.2.2]-7-octenen-3-carboxylate] | – | – | 31.5 ± 1.18 | 31.5 | – | – | Viability at 10 µM (%) ([3]; bloodstream T. b. brucei, 10 µM): 42 ± 14%
CC1CS(=O)(=O)CCN1/N=C/c1ccc([N+](=O)[O-])o1 (stereo not drawn) [Nifurtimox] | – | – | – | – | – | – | EC50 [4]: 5.3 µM; EC50 ([4]; listed as Nfx): 5.31 ± 0.44 µM
CC1(C)OC2C3C=CC(C)(C2O1)N(CCc1c[nH]c2ccccc12)C3COCc1ccccc1 [Compound 14, (1S, 3R, 4S, 5S, 6R)-N-(2-(3-indolyl)ethyl)-1-methyl-3-benzyloximethyl-5,6-isopropylidendioxy-2-azabicycle[2.2.2]-7-octene] | 23 | ≤ 7 times | – | – | 22 ± 12 | 1.27 ± 0.26 µM | EC50 [1]: 20.1 µM; lowest concentration with impairment in cell viability (WST-1) ([2]; 48 h, dose-response): ≥ 300 nM; EC50 [3, 8]: 1.3 µM
CC1(C)OC2C3C=CC(C)(C2O1)N(CCc1c[nH]c2ccccc12)C3CO [Compound 13, (1S, 3R, 4S, 5S, 6R)-N-(2-(3-indolyl)ethyl)-1-methyl-3-hydroxymethyl-5,6-isopropylidendioxy-2-azabicycle[2.2.2]-7-octene] | – | – | – | – | 88 | – | –
CC(C)C(C)(C)[Si](C)(C)OCC1NC2(C)C=CC1C1OC(C)(C)OC12 [Compound 10exo, (1S, 3R, 4S, 5R, 6S)-1-Methyl-3-(dimethyl(1,1,2-trimethylpropyl)silyloxy)methyl-5,6-isopropylidendioxy-2-azabicycle[2.2.2]-7-octene] | – | – | – | – | 64 ± 2 | – | –
CCC1CC2C=CC1N(CCc1c[nH]c3ccc(F)cc13)C2 (stereo not drawn) [XL-008, reference compound] | – | ~ 57 times | – | – | – | 19.5 ± 0.3 µM | EC50 [3, 8]: 20 µM
COC(=O)C1C2C=CC(C)(C3OC(C)(C)OC23)N1CCc1c[nH]c2ccccc12 [Compound 6, (1S, 3R, 4S, 5R, 6S)-Methyl N-(2-(3-indolyl)ethyl)-1-methyl-5,6-isopropylidendioxy-2-azabicycle[2.2.2]-7-octenen-3-carboxylate] | – | up to 6 times | – | – | 24 ± 6 | 7.9 µM and 7.96 µM | concentrations at which cell viability is impaired (WST-1) ([2]; 48 h, dose-response 0.03 to 60 µM): ≥ 10 µM; concentrations with significant cell lysis / cell death (LDH) [5]: 60 µM
CC1(C)OC2C3C=CC(C)(C2O1)N(CCc1c[nH]c2ccccc12)C3COC(=O)Cc1c[nH]c2ccccc12 [Compound 15, (1S, 3R, 4S, 5S, 6R)-N-(2-(3-indolyl)ethyl)-1-methyl-3-(2-(1H-3-indolyl)acetyloxy)methyl-5,6-isopropylidendioxy-2-azabicycle[2.2.2]-7-octene] | 70 | up to 60 times | 3.47 ± 0.02 | 3.5 | 0 | – | EC50 ([1]; dose-response 0.03 to 60 µM): 6.79 µM; IC50 [2]: 3.5 µM
